Data: patent US12383571B2, “Method for enhancing tyrosinase inhibitory activity” (Jiangnan University, priority 2019, dated 2025)

system: tyrosinase; assay: Determination of tyrosinase activity by spectrophotometry (L-dopa substrate, 475 nm); format: biochemical; conditions: single phenolic acid at 5 mM, other conditions as Example 1 (1.0 mg/mL protodioscin, 150° C. 30 min)
Description: A determining method of tyrosinase activity: spectrophotometry is employed, 2.8 ml of 2.5 mM L-dopa solution is taken as a substrate, 100 μL of treated inhibitor solution is taken, then 100 μL of 0.2 mg/mL tyrosinase solution is added for incubation at 30° C. for 15 min, and then a change in its light absorption value is measured at 475 nm, and taking tyrosinase activity without an inhibitor as 100%, a calculation formula is as follows: tyrosinase relative activity/%=(B2−B1)/(A2−A1)×100,
Where A1 and A2 represent light absorption values of a blank group at 0 min and 15 min, and B1 and B2 represent light absorption values of a sample at 0 min and 15 min. • 2.

Compound | tyrosinase relative activity (%)
O=C(O)c1cc(O)c(O)c(O)c1 [gallic acid] | 97.25%
O=c1c(O)c(-c2ccc(O)c(O)c2)oc2cc(O)cc(O)c12 [quercetin] | 80.69%
O=C(O)C=Cc1ccccc1 [cinnamic acid] | 102.32%
COc1cc(-c2oc3cc(O)cc(O)c3c(=O)c2O)ccc1O [isorhamnetin] | 82.52%
COc1cc(/C=C/C(=O)O)ccc1O [ferulic acid] | 107.56%
